Structures can show the parent of a compound that is named as a salt. Where two headings read alike, the source gives them in different places. Each block holds one molecule with its values, some of them ahead of it.
Experiments:
SUDHL5 cells [1] = test: Induction of caspase-3/7 activity (Caspase-Glo 3/7), SUDHL5; type: cell-based; conditions: EC50, median, SUDHL5, 3 h treatment
In short: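 DLBCL lines treated with compounds for 3 h at 37 °C in a humidified incubator; caspase-3/7 activity read with Caspase-Glo 3/7 luminescent reagent. Medium-only background subtracted from all values.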

SUDHL5 cells [2] = test: Induction of cytotoxicity (CellTiter-Glo, 5 h), SUDHL5; conditions: SUDHL5, 5 h
Method: Therefore, cytotoxicity assays were run in parallel in SUDHL5 and SUDHL10 cells.
The different cell lines were plated in culture medium (RPMI 1640 [GIBCO #22400-089] supplemented with 10% Fetal Bovine Serum) at a density of 3,300 cells in 30 μL/well in a sterile, solid black, flat bottom, polystyrene, TC-treated 384-well microplate (Corning #3571) using Multidrop Combi Reagent Dispenser. As a control, medium without cells was also added to the plate. Cells were incubated in a humidified incubator at 37° C. overnight. […] Rim wells were excluded. The cells were incubated for 5 h hours in a humidified incubator at 37° C. After this incubation, 30 μL of CellTiter-Glo® Luminescent Cell Viability reagent (Promega, G7573) was added to each well using the Multidrop Combi Reagent Dispenser, followed by 15 min incubation on a shaker at room temperature. Finally, luminescence was read at 0.1 ms, with a gain of 3000 using the PHERAstar FS microplate reader (BMG Labtech).

SUDHL5 cells [3] = test: Antiproliferation assay (CellTiter-Glo, 72 h), SUDHL5; type: cell-based; conditions: IC50, median, SUDHL5, 72 h, read-out: Antiproli SUDHL5 [M] (median)
Method: (§1) Assessment of the Anti-Proliferative Effect of Compounds in Different Cell Lines
(§2) The impact of compounds on the proliferation of different cell lines was assessed using the CellTiter-Glo® Luminescent Cell Viability reagent from Promega (G7573).
(§3) In parallel, cells were plated in a reference (day 0) plate for time zero determination.
(§4) Rim wells were excluded. The cells were incubated for 72 h hours in a humidified incubator at 37° C. The day 0 plate was measured by adding 30 μL/well of CTG solution (CellTiter-Glo® Luminescent Cell Viability reagent, Promega G7573) to time zero wells in the reference plate followed by a 10 minutes incubation and luminescence reading at 0.1 ms. using the PHERAstar FS microplate reader (BMG Labtech).
(§5) After 72 h incubation, the treated plates were measured in the same way as the day 0 plate mentioned above.

SUDHL10 cells [4] = test: Induction of caspase-3/7 activity (Caspase-Glo 3/7), SUDHL10; type: cell-based; conditions: EC50, median, SUDHL10, 3 h treatment
Method: Induction of Caspase-3/7 Activity Upon Treatment of Cells with Selected Compounds
The BH3-domain of MCL-1 sequesters pro-apoptotic proteins, thereby inhibiting apoptosis. In contrast, MCL-1 inhibitors are expected to antagonize this effect leading to an increase in apoptosis, which can be determined by measuring the activity of caspase-3/7.
The activity of caspase-3/7 was determined in DLBCL (Diffuse large B-cell lymphoma) cell lines (SUDHL5 and SUDHL10) upon treatment with different compounds, using the Caspase-Glo® 3/7 reagent from Promega (G8092).
Rim wells were excluded. The cells were incubated for 3 h hours in a humidified incubator at 37° C.
For the evaluation of the results, the background measured with “medium-only” was subtracted from all other values.

AMO-1 cells = test: Antiproliferation assay (CellTiter-Glo, 72 h), AMO-1; type: cell-based; conditions: IC50, median, AMO-1, 72 h, read-out: Antiproli AMO-1 [M] median
In short: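 Cells were incubated with compounds for 72 h at 37°C. Viability was then read by CellTiter-Glo luminescence, and a parallel day 0 plate read the same way gave the time-zero signal.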

SUDHL10 cells [5] = test: Induction of cytotoxicity (CellTiter-Glo, 5 h), SUDHL10; conditions: SUDHL10, 5 h
HMC-1-8 cells = test: Antiproliferation assay (CellTiter-Glo, 72 h), HMC-1-8; type: cell-based; conditions: IC50, median, HMC-1-8, 72 h, read-out: Antiproli HMC-1-8 [M] median
Method: as §1, §2, §3, §4, §5

[6] = Homo sapiens, SU-DHL-5, 5 h, read-out: Cytotox SUDHL5 [M] (median), IC50, median
[7] = Homo sapiens, SU-DHL10, 5 h, read-out: Cytotox SUDHL10 [M] (median), IC50, median
[8] = read-out: Cytotox SUDHL5 [M] (median), IC50, median
[9] = read-out: Cytotox SUDHL10 [M] (median), IC50, median

Compound: CCc1c2c(nn1C)COCC1(CCn3c(C(=O)O)c(CCCOc4cccc5ccccc45)c4ccc(Cl)c-2c43)CC1 (racemic) [Example 72, (rac)-4′-chloro-3′-ethyl-2′-methyl-7′-{3-[(naphthalen-1-yl)oxy]propyl}-2′,10′,11′,15′-tetrahydro-13′H-spiro[cyclopropane-1,12′-pyrazolo[4′,3′:9,10][1,6]oxazacycloundecino[8,7,6-hi]indole]-8′-carboxylic acid]
EC50 (SUDHL5 cells [1]; Homo sapiens, SU-DHL-5, 3 h): 730 nM
IC50 (SUDHL5 cells [2]; [6]): 1e-06 M
IC50 (SUDHL5 cells [3]; Homo sapiens, SU-DHL-5, 72 h): 8.8e-07 M
EC50 (SUDHL10 cells [4]; Homo sapiens, SU-DHL10, 3 h): 2.8 µM
IC50 (AMO-1 cells; Homo sapiens, AMO1, 72 h): 2.8e-06 M
IC50 (SUDHL10 cells [5]; [7]): 2.5e-06 M

Compound: Cc1c2c(nn1C)COCCCCn1c(C(=O)O)c(CCCOc3cccc4cc(F)ccc34)c3ccc(Cl)c-2c31 (single isomer, unassigned; enantiomer 1) [Example 16, (−)-4-chloro-7-{3-[(6-fluoronaphthalen-1-yl)oxy]propyl}-2,3-dimethyl-2,10,11,12,13,15-hexahydropyrazolo[4′,3′:9,10][1,6]oxazacycloundecino[8,7,6-hi]indole-8-carboxylic acid (Enantiomer 1)]
EC50 (SUDHL5 cells [1]; Homo sapiens, SU-DHL-5, 3 h): 3600 nM
IC50 (SUDHL5 cells [2]; [6]): 3.3e-06 M
IC50 (SUDHL5 cells [3]; Homo sapiens, SU-DHL-5, 72 h): 1.5e-06 M
EC50 (SUDHL10 cells [4]; Homo sapiens, SU-DHL10, 3 h): 5.2 µM
IC50 (AMO-1 cells; Homo sapiens, AMO1, 72 h): 8.9e-06 M
IC50 (SUDHL10 cells [5]; [7]): 4.9e-06 M

Compound: CCc1c2c(nn1C)CN(CC(F)F)CCCCn1c(C(=O)O)c(CCCOc3cccc4cc(F)ccc34)c3ccc(Cl)c-2c31 (single isomer, unassigned; enantiomer 1) [Example 75, (+)-4-chloro-14-(2,2-difluoroethyl)-3-ethyl-7-{3-[(6-fluoronaphthalen-1-yl)oxy]propyl}-2-methyl-10,11,12,13,14,15-hexahydro-2H-pyrazolo[3′,4′:8,9][1,6]diazacycloundecino[10,11,1-hi]indole-8-carboxylic acid-N-ethylethanamine salt (Enantiomer 1)]
EC50 (SUDHL5 cells [1]; listed as 075): 550 nM
IC50 (SUDHL5 cells [2]; read-out: Cytotox SUDHL5 [M] (median), IC50, median, listed as 075): 9.1e-07 M
IC50 (SUDHL5 cells [3]; listed as 075): 1.6e-06 M
EC50 (SUDHL10 cells [4]; listed as 075): 3.5 µM
IC50 (AMO-1 cells; listed as 075): 4.8e-06 M
IC50 (SUDHL10 cells [5]; read-out: Cytotox SUDHL10 [M] (median), IC50, median, listed as 075): 1.4e-06 M

Compound: CCc1c2c(nn1C)CN(CCC(C)(C)O)CCCCn1c(C(=O)O)c(CCCOc3cccc4cc(F)ccc34)c3ccc(Cl)c-2c31 (single isomer, unassigned; enantiomer 1) [Example 140, 4-chloro-3-ethyl-7-{3-[(6-fluoronaphthalen-1-yl)oxy]propyl}-14-(3-hydroxy-3-methylbutyl)-2-methyl-10,11,12,13,14,15-hexahydro-2H-pyrazolo[3′,4′:8,9][1,6]diazacycloundecino[10,11,1-hi]indole-8-carboxylic acid (Enantiomer 1)]
IC50 (HMC-1-8 cells; 72 h): 1.4e-06 M

Compound: CCc1c2c(nn1C)CCCCCCn1c(C(=O)O)c(CCCOc3cccc4cc(F)ccc34)c3ccc(Cl)c-2c31 (single isomer, unassigned; enantiomer 1) [Example 70, (+)-4-chloro-3-ethyl-7-{3-[(6-fluoronaphthalen-1-yl)oxy]propyl}-2-methyl-10,11,12,13,14,15-hexahydro-2H-pyrazolo[4′,3′:4,5]azacycloundecino[3,2,1-hi]indole-8-carboxylic acid-N-ethylethanamine salt (Enantiomer 1)]
EC50 (SUDHL5 cells [1]; Homo sapiens, SU-DHL-5, 3 h): 710 nM
IC50 (SUDHL5 cells [2]; [6]): 1e-06 M
IC50 (SUDHL5 cells [3]; Homo sapiens, SU-DHL-5, 72 h): 1.5e-06 M
EC50 (SUDHL10 cells [4]; Homo sapiens, SU-DHL10, 3 h): 1.3 µM
IC50 (AMO-1 cells; Homo sapiens, AMO1, 72 h): 1.1e-06 M
IC50 (SUDHL10 cells [5]; [7]): 1.7e-06 M

Compound: CCc1c2c(nn1C)CN(CCN1CCOCC1)CCCCn1c(C(=O)O)c(CCCOc3cccc4cc(F)ccc34)c3ccc(Cl)c-2c31 (single isomer, unassigned; enantiomer 1) [Example 142, 4-chloro-3-ethyl-7-{3-[(6-fluoronaphthalen-1-yl)oxy]propyl}-2-methyl-14-[2-(morpholin-4-yl)ethyl]-10,11,12,13,14,15-hexahydro-2H-pyrazolo[3′,4′:8,9][1,6]diazacycloundecino[10,11,1-hi]indole-8-carboxylic acid (Enantiomer 1)]
IC50 (HMC-1-8 cells): 7.5e-07 M

Second part, led by results:

EC50 (SUDHL5 cells [1]; Homo sapiens, SU-DHL-5, 3 h): 3000 nM
IC50 (SUDHL5 cells [3]; Homo sapiens, SU-DHL-5, 72 h): 1.6e-06 M
EC50 (SUDHL10 cells [4]; Homo sapiens, SU-DHL10, 3 h): 3.6 µM
Compound: CCc1c2c(nn1C)CN(CCC(C)(C)O)CCCCn1c(C(=O)O)c(CCCOc3cccc4cc(F)ccc34)c3ccc(Cl)c-2c31 (single isomer, unassigned; enantiomer 2) [Example 141, 4-chloro-3-ethyl-7-{3-[(6-fluoronaphthalen-1-yl)oxy]propyl}-14-(3-hydroxy-3-methylbutyl)-2-methyl-10,11,12,13,14,15-hexahydro-2H-pyrazolo[3′,4′:8,9][1,6]diazacycloundecino[10,11,1-hi]indole-8-carboxylic acid (Enantiomer 2)]
IC50 (SUDHL5 cells [2]; [6]): 2.6e-06 M
IC50 (AMO-1 cells; Homo sapiens, AMO1, 72 h): 2.4e-06 M
IC50 (SUDHL10 cells [5]; [7]): 3.6e-06 M

EC50 (SUDHL5 cells [1]): 5000 nM
IC50 (SUDHL5 cells [3]): 3.1e-07 M
EC50 (SUDHL10 cells [4]): 4.9 µM
Compound: CCc1c2c(nn1C)COCC1(CCn3c(C(=O)O)c(CCCOc4cccc5cc(F)ccc45)c4ccc(Cl)c-2c43)CC1 [Example 111, (+)-4′-chloro-3′-ethyl-7′-{3-[(6-fluoronaphthalen-1-yl)oxy]propyl}-2′-methyl-2′,10′,11′,15′-tetrahydro-13′H-spiro[cyclopropane-1,12′-pyrazolo[4′,3′:9,10][1,6]oxazacycloundecino[8,7,6-hi]indole]-8′-carboxylic acid-N-ethylethanamine salt]
IC50 (SUDHL5 cells [2]; [8]): 6e-06 M
IC50 (AMO-1 cells): 8.4e-06 M
IC50 (SUDHL10 cells [5]; [9]): 6.7e-06 M

EC50 (SUDHL5 cells [1]; listed as 080): 490 nM
IC50 (SUDHL5 cells [3]; Homo sapiens, SU-DHL-5, 72 h): 2.2e-07 M
EC50 (SUDHL10 cells [4]; listed as 080): 0.45 µM
Compound: Cc1c2c(nn1C)COCC1CCC1Cn1c(C(=O)O)c(CCCOc3cccc4ccccc34)c3ccc(Cl)c-2c31 (single isomer, unassigned) [Example 80, 3-chloro-4,5-dimethyl-15-{3-[(naphthalen-1-yl)oxy]propyl}-5,7,9,9a,10,11,11a,12-octahydrocyclobuta[3,4]pyrazolo[4′,3′:9,10][1,6]oxazacycloundecino[8,7,6-hi]indole-14-carboxylic acid]
IC50 (SUDHL5 cells [2]; read-out: Cytotox SUDHL5 [M] (median), IC50, median, listed as 080): 5.8e-07 M
IC50 (AMO-1 cells; Homo sapiens, AMO1, 72 h): 1.9e-06 M
IC50 (SUDHL10 cells [5]; read-out: Cytotox SUDHL10 [M] (median), IC50, median, listed as 080): 8.1e-07 M

EC50 (SUDHL5 cells [1]; Homo sapiens, SU-DHL-5, 3 h): 2400 nM
IC50 (SUDHL5 cells [3]): 2.1e-06 M
EC50 (SUDHL10 cells [4]): 4.6 µM
Compound: CCc1c2c(nn1C)COCC1CC1Cn1c(C(=O)O)c(CCCOc3cccc4cc(F)ccc34)c3ccc(Cl)c-2c31 (racemic) [Example 106, (rac)-3-chloro-4-ethyl-14-{3-[(6-fluoronaphthalen-1-yl)oxy]propyl}-5-methyl-5,7,9a,10,10a,11-hexahydro-9H-cyclopropa[3,4]pyrazolo[4′,3′:9,10][1,6]oxazacycloundecino[8,7,6-hi]indole-13-carboxylic acid]
IC50 (SUDHL5 cells [2]; [8]): 2.8e-06 M
IC50 (AMO-1 cells): 8.1e-06 M
IC50 (SUDHL10 cells [5]; [9]): 5.8e-06 M

EC50 (SUDHL5 cells [1]): 2100 nM
IC50 (SUDHL5 cells [3]): 4.1e-06 M
EC50 (SUDHL10 cells [4]): 3.4 µM
Compound: CCc1c2c(nn1C)CN(C)CC(F)(F)CCn1c(C(=O)O)c(CCCOc3cccc4cc(F)ccc34)c3ccc(Cl)c-2c31 (single isomer, unassigned) [Example 128, 4-chloro-3-ethyl-12,12-difluoro-7-{3-[(6-fluoronaphthalen-1-yl)oxy]propyl}-2,14-dimethyl-10,11,12,13,14,15-hexahydro-2H-pyrazolo[3′,4′:8,9][1,6]diazacycloundecino[10,11,1-hi]indole-8-carboxylic acid]
IC50 (SUDHL5 cells [2]; [8]): 2.3e-06 M
IC50 (AMO-1 cells): 6.5e-06 M
IC50 (SUDHL10 cells [5]; [9]): 3.6e-06 M
